Test results taken from patent US9925238B2, “Use of peptide for treating angiogenesis-related diseases” (MacKay Memorial Hospital, priority 2014, dated 2018).

Experiments:
[1] = system: human umbilical vein endothelial cells (HUVECs); experiment: Matrigel angiogenesis assay (tube formation) with HUVECs; type: cell-based; details: FIGS. 5 and 6; for inhibition of angiogenesis of HUVEC cells on the Matrigel: 24 hours
Description: (§1) A total of 200 μl Matrigel was added into wells of a 24-well plate and polymerized for 30 minutes at 37° C. EPC suspensions containing various concentrations of Dsg2 peptide (0.25 mg/ml, 0.5 mg/ml, or 1 mg/ml), scramble peptide (1 mg/ml) or Avastin (10 μg/ml) were plated on the Matrigel-coated wells at a density of 5×10^4 cells (EPCs, or HUVECs) in MV2 medium containing 2% FBS for 24 hours at 37° C. in a 5% CO2 humidified incubator. Each sample was tested in triplicate in the same plate, and wells were photographed with a Leica camera (×40 magnification).
(§2) Tube length in relative to the control was quantified by measuring tubes in 5 randomly chosen fields from each well with QWIN software. Experiments were repeated more than three times. The values were expressed as the means±S.D. for the three independent experiments.

C57BL/6 mice [2] = experiment: Oxygen-induced retinopathy (OIR) retinal neovascularization model; type: in vivo, mouse; details: FIGS. 9 and 10; for inhibition of angiogenesis (retinal neovascularization) in the OIR model: intravitreal injection at P12, eyes at P17, compared with PBS or scramble peptide, p<0.01
Description: The neonatal mouse (C57BL/6) pups of normoxia group (serving as control) were kept in room air until postnatal day 12 (P12), while the pups of OIR group were maintained with their nursing mothers for 5 days in 75% oxygen at P7 and then returned to room air (relative hypoxia) so as to generate oxygen-induced neovascularization at P12. 1 μl of Dsg2 peptide (25 μg), scramble peptide (25 μg) and Avastin (10 μg) were intravitreally injected into mouse eyes at P12, respectively. The animals were killed, and the mouse eyes were enucleated at P17.
Mouse eye cups were fixed in 4% paraformaldehyde for 2 hours. The retina was carefully separated from eye cup, and then incubated with fluorescein-labeled isolectin-B4 (Life technologies) at 4° C. overnight. Samples were coverslipped with Vectashield medium (Vector Laboratories), and the lectin labeling was examined by use of the 20× objective of a Zeiss LSM-510 confocal microscope. Fluorescence volume measurements were recorded by creating image stacks of optical slices within lesions with QWIN software. Values for implicit volume were designated as mean total surface area.

[3] = system: human endothelial progenitor cells (EPCs); experiment: Matrigel angiogenesis assay (tube formation) with EPCs; type: cell-based; details: for inhibition of angiogenesis in EPCs: FIGS. 3 and 4
Description: as §1, §2

C57BL/6 mice [4] = experiment: Matrigel plug assay; type: in vivo, mouse; details: 7 days
Description: 0.5 ml of growth factor-reduced liquid Matrigel respectively containing: (1) heparin (60 U/mL); (2) heparin (60 U/mL), VEGF (10 ng/ml), and PBS; (3) heparin (60 U/mL), VEGF (10 ng/ml), and scramble peptide (1 mg/ml); and (4) heparin (60 U/mL), VEGF (10 ng/ml), and Dsg2 peptide (1 mg/ml) were subcutaneously injecting into the skin near the abdominal midline of C57BL/6 mice. 7 days after injection, mice were euthanized, and Matrigel plugs were surgically removed and analyzed.
For macroscopic analysis of angiogenesis, hemoglobin content in Matrigel was measured with Drabkin reagent 525 (Sigma-Aldrich). Briefly, the Matrigel plug sample was re-liquefied by being place at 4° C. on ice with red cell lysis reagent for 24 hours. After brief centrifugation, 20 μl of supernatant was added to 100 μl of Drabkin solution. The mixture was allowed to stand 30 minute at room temperature, and the absorbance was measured at 540 nm. The obtained hemoglobin content was normalized to the plug weight and the value was expressed as μg hemoglobin/mg Matrigel plug.

Question: With “Bevacizumab [Avastin, reference compound]” as the substance, how does the “inhibition of angiogenesis of HUVEC cells on the Matrigel” value [1] read?
Answer: The value was “capable of inhibiting angiogenesis”.

Question: And the “inhibition of angiogenesis (retinal neovascularization) in the OIR model” value (C57BL/6 mice [2])?
Answer: Its value is “significantly inhibited the angiogenesis”.

Question: For “IVSLEPAYPP (IP10) [fragment of the predicted EC2 domain of Dsg2 peptide]”, which “inhibition of angiogenesis (tube formation) of EPCs on Matrigel” value ([3]; fragments at 1.0 mg/ml, p<0.05, FIG. 2) is on record?
Answer: The value was “can inhibit the angiogenesis”.

Question: Which results are given for “KINATDADEPNTLNSKISYRC (extra C-terminal cysteine; Dsg2-derived peptide) [Dsg2-derived short peptide, KR20 fragment conjugated with one extra cysteine residue]”?
Answer: inhibition of angiogenesis in EPCs ([3]; 0.5 mg/ml (200 uM)): significantly inhibited angiogenesis; inhibition of angiogenesis in EPCs ([3]; 1.0 mg/ml (400 uM)): significantly inhibited angiogenesis; reduction of tube formation ([3]; 1.0 mg/ml (400 uM), p<0.05): more than 50%; relative tube length in relative to the control group ([3]; 1.0 mg/ml (400 uM), p<0.05): less than 50%; inhibition of angiogenesis of HUVEC cells on the Matrigel [1]: capable of inhibiting angiogenesis; efficacy in inhibiting tube formation compared with Avastin ([1]; HUVECs on Matrigel): more effective than Avastin; formation of newly formed blood vessels in Matrigel plug (C57BL/6 mice [4]; 1 mg/ml in plug with heparin and VEGF, compared with PBS or scramble peptide, FIG. 7): capable of inhibiting the formation of newly formed blood vessels; hemoglobin content of Matrigel plug (C57BL/6 mice [4]; 1 mg/ml in plug, vs plug containing PBS or scramble peptide, p<0.05, FIG. 8): significantly lower; anti-angiogenic efficacy compared with Avastin (C57BL/6 mice [2]; OIR model, intravitreal): better than that of Avastin; inhibition of angiogenesis (retinal neovascularization) in the OIR model (C57BL/6 mice [2]): significantly inhibited the angiogenesis
